Holding throughout (type): biochemical
One experiment deals with T1, CDK7 (Homo sapiens, UniProt P50613).
T1 construct: purchased Carna Biosciences, Inc
Briefly: CDK7 kinase activity inhibition (ADP-Glo). The conditions noted are these: 10 μM ATP, 2 h at room temperature. Here is the method:
(§1) CDK9 kinase was manufactured by the company or commercially available. CDK1, CDK2 and CDK7 were purchased from Carna Biosciences, Inc. ADP-Glo™ kit was purchased from Promega Corporation. Dithiothreitol (DTT), Tween-20, dimethylsulfoxide (DMSO), bovine serum albumin (BSA) and Tris base were obtained from Sigma at the available highest level of purity.
(§2) General procedures for CDK inhibition determination: The determination was performed in a buffer consisting of 50 μM DTT, 0.1% BSA, 40 mM Tris-HCl pH=7.5 and 20 mM MgCl2. The compound dissolved in DMSO and CDK enzymes were diluted with the buffer. 1 μL of the compound solution in 5% DMSO and 2 μL of the CDK enzyme solution were added to a white low-volume 384-well microtiter plate and incubated for 20 min at room temperature. Ultra pure ATP and the substrate polypeptide (purchased from GenScript Biotech Corporation) were diluted together into the buffer and added to a mixed solution of the compound and the enzyme, 2 μL per well. They were incubated for 2 h at room temperature.
(§3) After the reaction was completed, 5 μL of ADP-Glo™ reagent was added to each well and incubated for 40 min at room temperature, and then 10 μL of test reagent was added to each well and incubated for 30 mi at room temperature. Chemical luminescence values were measured by using a Tecan (Männedorf, Switzerland) multifunctional plate reader Spark for plate reading. The IC50 value of the inhibitor was obtained by fitting the chemical luminescence intensity ratio in the S-shaped dosage reaction curve using Prism 7 (La Jolla, 15 CA) relative to the concentration of the inhibitor.
On the technique in general: ADP-Glo turns the ADP formed in a reaction into a luminescent signal.

The target of a further experiment is T2, CDK1 (Homo sapiens, UniProt P06493).
T2 construct: purchased Carna Biosciences, Inc
Briefly: CDK1 kinase activity inhibition (ADP-Glo). The conditions noted are these: 50 μM ATP, 2 h at room temperature. Here is the method:
as §1, §2, §3

A further experiment deals with T3, CDK2 (Homo sapiens, UniProt P24941).
T3 construct: purchased Carna Biosciences, Inc
The experiment can be described thus: CDK2 kinase activity inhibition (ADP-Glo). The note with it: 10 μM ATP, 2 h at room temperature. Here is the method:
as §1, §2, §3

For another experiment, the target named is CDK9 (Homo sapiens, UniProt P50750). The experiment can be described thus: CDK9 kinase activity inhibition (ADP-Glo). The note with it: 10 μM ATP, 2 h at room temperature. On the procedure:
as §1, §2, §3

SMILES strings stand for the structures.

CDK9, sequence (P50750 whole entry): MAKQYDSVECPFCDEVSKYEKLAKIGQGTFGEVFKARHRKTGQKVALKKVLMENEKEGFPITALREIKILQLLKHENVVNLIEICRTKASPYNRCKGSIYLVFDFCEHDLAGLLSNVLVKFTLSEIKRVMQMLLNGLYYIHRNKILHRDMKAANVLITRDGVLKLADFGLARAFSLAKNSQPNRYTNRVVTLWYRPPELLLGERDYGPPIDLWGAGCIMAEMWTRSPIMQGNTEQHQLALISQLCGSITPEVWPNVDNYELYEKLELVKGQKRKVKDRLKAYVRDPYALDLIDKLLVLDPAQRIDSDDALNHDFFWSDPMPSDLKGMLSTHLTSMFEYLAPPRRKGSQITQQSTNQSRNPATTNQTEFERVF
CDK9, sequence (O60563 whole entry partner): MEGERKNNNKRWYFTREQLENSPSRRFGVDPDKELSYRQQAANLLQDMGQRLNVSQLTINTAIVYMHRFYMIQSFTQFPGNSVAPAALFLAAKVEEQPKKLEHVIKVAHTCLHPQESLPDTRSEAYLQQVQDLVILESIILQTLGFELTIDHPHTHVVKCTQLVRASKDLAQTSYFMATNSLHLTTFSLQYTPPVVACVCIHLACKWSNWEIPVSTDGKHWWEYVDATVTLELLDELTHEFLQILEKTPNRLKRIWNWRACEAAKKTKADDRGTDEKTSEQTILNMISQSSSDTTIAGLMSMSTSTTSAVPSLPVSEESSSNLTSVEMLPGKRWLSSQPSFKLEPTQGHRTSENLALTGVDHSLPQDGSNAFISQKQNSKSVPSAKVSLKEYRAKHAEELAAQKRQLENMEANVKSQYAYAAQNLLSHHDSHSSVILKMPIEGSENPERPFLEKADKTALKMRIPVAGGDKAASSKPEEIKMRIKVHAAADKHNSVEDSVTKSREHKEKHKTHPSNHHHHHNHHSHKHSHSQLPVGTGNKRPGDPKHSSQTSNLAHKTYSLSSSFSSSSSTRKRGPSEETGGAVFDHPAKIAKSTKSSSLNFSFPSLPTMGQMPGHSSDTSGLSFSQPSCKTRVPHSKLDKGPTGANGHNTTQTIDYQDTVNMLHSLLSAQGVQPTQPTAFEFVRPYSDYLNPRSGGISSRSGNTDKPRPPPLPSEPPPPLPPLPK
T2 sequence (P06493 whole entry): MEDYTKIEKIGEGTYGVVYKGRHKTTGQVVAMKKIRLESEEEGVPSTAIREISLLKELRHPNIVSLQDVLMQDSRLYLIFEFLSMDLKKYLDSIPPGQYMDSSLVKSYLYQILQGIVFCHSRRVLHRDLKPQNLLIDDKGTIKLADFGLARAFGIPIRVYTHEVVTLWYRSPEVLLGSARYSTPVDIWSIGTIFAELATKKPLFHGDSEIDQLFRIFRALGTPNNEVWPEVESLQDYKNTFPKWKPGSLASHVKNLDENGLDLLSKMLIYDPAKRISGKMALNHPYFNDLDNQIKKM
T2 sequence (P14635 whole entry partner): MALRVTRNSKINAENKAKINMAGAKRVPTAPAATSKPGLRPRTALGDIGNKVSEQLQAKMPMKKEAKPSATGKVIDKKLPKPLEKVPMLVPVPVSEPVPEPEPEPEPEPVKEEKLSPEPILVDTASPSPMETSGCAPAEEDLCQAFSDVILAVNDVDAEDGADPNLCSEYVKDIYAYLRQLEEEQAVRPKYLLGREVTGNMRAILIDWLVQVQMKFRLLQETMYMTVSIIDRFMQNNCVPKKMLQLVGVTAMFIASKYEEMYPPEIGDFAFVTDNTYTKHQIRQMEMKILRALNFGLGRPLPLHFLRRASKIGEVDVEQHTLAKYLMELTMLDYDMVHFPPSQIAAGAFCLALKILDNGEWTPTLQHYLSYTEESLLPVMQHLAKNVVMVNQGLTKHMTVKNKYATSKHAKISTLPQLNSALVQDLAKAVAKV
T1 sequence (P50613 whole entry): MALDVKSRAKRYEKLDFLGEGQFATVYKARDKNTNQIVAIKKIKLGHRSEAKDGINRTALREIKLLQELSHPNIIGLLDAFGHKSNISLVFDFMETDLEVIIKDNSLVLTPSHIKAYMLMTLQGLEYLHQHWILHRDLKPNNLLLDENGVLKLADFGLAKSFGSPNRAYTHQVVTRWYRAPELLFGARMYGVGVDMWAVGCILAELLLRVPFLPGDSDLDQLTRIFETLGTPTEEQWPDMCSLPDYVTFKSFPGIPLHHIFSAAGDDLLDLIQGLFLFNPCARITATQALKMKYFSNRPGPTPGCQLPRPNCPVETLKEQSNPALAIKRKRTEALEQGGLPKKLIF
T1 sequence (P51946 whole entry partner): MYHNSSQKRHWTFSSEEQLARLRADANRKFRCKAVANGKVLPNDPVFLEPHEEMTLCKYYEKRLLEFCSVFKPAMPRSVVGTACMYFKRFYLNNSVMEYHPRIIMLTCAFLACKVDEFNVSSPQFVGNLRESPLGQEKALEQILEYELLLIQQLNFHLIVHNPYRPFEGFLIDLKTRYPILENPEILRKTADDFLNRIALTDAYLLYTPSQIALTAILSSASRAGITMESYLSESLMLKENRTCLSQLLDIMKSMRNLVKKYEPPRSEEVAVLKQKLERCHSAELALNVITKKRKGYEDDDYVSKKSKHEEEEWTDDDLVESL
T1 sequence (P51948 whole entry partner): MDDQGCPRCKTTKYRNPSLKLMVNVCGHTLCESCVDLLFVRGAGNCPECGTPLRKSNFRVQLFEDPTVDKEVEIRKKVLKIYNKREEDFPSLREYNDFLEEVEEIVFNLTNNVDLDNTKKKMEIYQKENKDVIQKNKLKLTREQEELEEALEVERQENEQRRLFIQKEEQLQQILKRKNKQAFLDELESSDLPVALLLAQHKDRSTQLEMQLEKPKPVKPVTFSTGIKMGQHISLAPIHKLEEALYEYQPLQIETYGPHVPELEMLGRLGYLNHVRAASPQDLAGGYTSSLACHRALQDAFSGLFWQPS

Usually IC50 stands for the midpoint of a concentration-inhibition curve. Low values mean inhibition by little substance, high ones a need for much substance. Take `CC(=O)NC[C@H]1CCC(F)(F)CN1C(=O)c1nc(Nc2cc(C)ccn2)ccc1C` [Compound 8, (R)—N-((5,5-difluoro-1-(3-methyl-6-((4-methylpyridin-2-yl)amino)pyridine-2-carbonyl)piperidin-2-yl)methyl)acetamide]: the IC50 against CDK7 was determined as 8380 nM; on CDK1, 8730 nM; against CDK2, 2590 nM; against CDK9, 8.9 nM.
In the case of `COc1ccnc(Nc2ccc(C)c(C(=O)N3CC(F)(F)CC[C@@H]3CNC(C)=O)n2)c1` [Compound 9, (R)—N-((5,5-difluoro-1-(6-((4-methoxypyridin-2-yl)amino)-3-methylpyridine-2-carbonyl)piperidin-2-yl)methyl)acetamide], the IC50 against CDK7 was over 10000 nM; on CDK1 it was over 10000 nM; against CDK2 it was 8450 nM; against CDK9 it was 7.8 nM.
As for `COc1cc(Nc2ccc(C)c(C(=O)N3CC(F)(F)CC[C@@H]3CNC(C)=O)n2)ncc1Cl` [Compound 10, (R)—N-((1-(6-((5-chloro-4-methoxypyridin-2-yl)amino)-3-methylpyridine-2-carbonyl)-5,5-difluoropiperidin-2-yl)methyl)acetamide], the IC50 is 9860 nM at CDK7, over 10000 nM on CDK1, over 10000 nM at CDK2 and 361 nM against CDK9.
In the case of `CC(=O)NC[C@H]1CCC(F)(F)CN1C(=O)c1nc(Nc2cc(-c3cnn4c3CCC4)c(F)cn2)ccc1C` [Compound 14, (R)—N-((1-(6-((4-(5,6-dihydro-4H-pyrrolo[1,2-b]pyrazol-3-yl)-5-fluoropyridin-2-yl)amino)-3-methylpyridine-2-carbonyl)-5,5-difluoropiperidin-2-yl)methyl)acetamide], the IC50 worked out at 1880 nM at CDK7, 1600 nM on CDK2 and 107 nM against CDK9.
`CC(=O)NC[C@H]1CCC(F)(F)CN1C(=O)c1nc(Nc2cc(C3CC(F)(F)C3)[nH]n2)ccc1C` [Compound 15, (R)—N-((1-(6-((5-(3,3-difluorocyclobutyl)-1H-pyrazol-3-yl)amino)-3-methylpyridine-2-carbonyl)-5,5-difluoropiperidin-2-yl)methyl)acetamide]: the IC50 at CDK7 was over 10000 nM; on CDK1, 503 nM; on CDK2, 12 nM; against CDK9, 4.3 nM.
Take `CC(=O)NC[C@H]1CCC(F)(F)CN1C(=O)c1nc(Nc2cc(OC3CCC3)ccn2)ccc1C` [Compound 16, (R)—N-((1-(6-((4-cyclobutoxypyridin-2-yl)amino)-3-methylpyridine-2-carbonyl)-5,5-difluoropiperidin-2-yl)methyl)acetamide]: the IC50 against CDK7 was over 10000 nM; against CDK2, 6350 nM; against CDK9, 54.6 nM.
Take `CC(=O)NC[C@H]1CCC(F)(F)CN1C(=O)c1nc(Nc2cc(C(C)(C)C)ccn2)ccc1C` [Compound 17, (R)—N-((1-(6-((4-(t-butyl)pyridin-2-yl)amino)-3-methylpyridine-2-carbonyl)-5,5-difluoropiperidin-2-yl)methyl)acetamide]: the IC50 was over 10000 nM against CDK1, 2870 nM on CDK2 and 19.2 nM against CDK9.
The corresponding values for `CC(=O)NC[C@H]1CCC(F)(F)CN1C(=O)c1nc(Nc2ccccn2)ccc1C` [Compound 22, (R)—N-((5,5-difluoro-1-(3-methyl-6-(pyridin-2-ylamino)pyridine-2-carbonyl)piperidin-2-yl)methyl)acetamide] are over 10000 nM, over 10000 nM and 35 nM.
As to `Cc1ccc(Nc2cc(C#N)ccn2)nc1C(=O)N1CC(F)(F)CC[C@@H]1CNC(=O)OC(C)(C)C` [Compound 31, (R)-((1-(6-((4-cyanopyridin-2-yl)amino)-3-methylpyridine-2-carbonyl)-5,5-difluoropiperidin-2-yl)methyl)t-butyl carbamate], the IC50 against CDK7 amounted to 7030 nM; at CDK1, 1470 nM; against CDK2, 180 nM; on CDK9, 3.7 nM.
For `Cc1ccc(Nc2cc(OC(F)(F)F)ccn2)nc1C(=O)N1CC(F)(F)CC[C@@H]1CNS(C)(=O)=O` [Compound 32, (R)—N-((5,5-difluoro-1-(3-methyl-6-((4-(trifluoromethoxy)pyridin-2-yl)amino)pyridine-2-carbonyl)piperidin-2-yl)methyl)methanesulfonamide], the IC50 amounted to 780 nM against CDK7, 1390 nM on CDK1, 305 nM at CDK2 and 11.6 nM at CDK9.
As for `Cc1ccc(Nc2cc(OC(F)(F)F)ccn2)nc1C(=O)N1CC(F)(F)CC[C@@H]1CNC(=O)OC(C)(C)C` [Compound 33, (R)-((5,5-difluoro-1-(3-methyl-6-((4-(trifluoromethoxy)pyridin-2-yl)amino)pyridine-2-carbonyl)piperidin-2-yl)methyl)t-butyl carbamate], the IC50 is over 10000 nM at CDK7, 1420 nM against CDK2 and 38 nM at CDK9.
Regarding `CCOc1ccnc(Nc2ccc(C)c(C(=O)N3CC(F)(F)CC[C@@H]3CNC(C)=O)n2)c1` [Compound 35, (R)—N-((1-(6-((4-ethoxypyridin-2-yl)amino)-3-methylpyridine-2-carbonyl)-5,5-difluoropiperidin-2-yl)methyl)acetamide], the IC50 against CDK7 is over 10000 nM; against CDK1 it was over 10000 nM; against CDK2, 6840 nM; at CDK9, 5 nM.
With `CCOc1ccnc(Nc2ccc(C)c(C(=O)N3CC(F)(F)CC[C@@H]3CNC(=O)OC(C)(C)C)n2)c1` [Compound 36, (R)-((1-(6-((4-ethoxypyridin-2-yl)amino)-3-methylpyridine-2-carbonyl)-5,5-difluoropiperidin-2-yl)methyl)t-butyl carbamate], the IC50 at CDK7 was over 10000 nM; against CDK2, over 10000 nM; against CDK9, 231 nM.
Consider `Cc1ccc(Nc2cc(OC(F)(F)F)ccn2)nc1C(=O)N1CCCC[C@@H]1CNC(=O)OC(C)(C)C` [Compound 41, (R)-((1-(3-methyl-6-((4-(trifluoromethoxy)pyridin-2-yl)amino)pyridine-2-carbonyl)piperidin-2-yl)methyl)t-butyl carbamate], for which the IC50 against CDK7 is over 10000 nM; against CDK2, 9260 nM; at CDK9, 245 nM.
On to `Cc1ccc(Nc2cc(OC(F)(F)F)ccn2)nc1C(=O)N1CCCN2CCCC2C1` (stereo not shown) [Compound 46, (Hexahydro-1H-pyrrolo[1,2-a][1,4]diazepin-2-2(3H)-yl)(3-methyl-6-((4-(trifluoromethoxy)pyridin-2-yl)amino)pyridin-2-yl)methanone], for which the IC50 was found to be 4120 nM against CDK1, 770 nM at CDK2 and 86.9 nM on CDK9.
Consider `CCOc1ccnc(Nc2ccc(C)c(C(=O)N3CC(F)(F)CC[C@@H]3CNC(=O)OC)n2)c1` [Compound 53, (R)-((1-(6-((4-ethoxypyridin-2-yl)amino)-3-methylpyridine-2-carbonyl)-5,5-difluoropiperidin-2-yl)methyl)methyl carbamate], for which the IC50 against CDK1 is over 10000 nM; at CDK2, over 10000 nM; on CDK9 it was 19.7 nM.
For the compound `CC(=O)NC[C@H]1CCC(F)(F)CN1C(=O)c1cc(Nc2cc(OC(F)(F)F)ccn2)ccc1C` [Compound 68, (R)—N-((5,5-difluoro-1-(2-methyl-5-((4-(trifluoromethoxy)pyridin-2-yl)amino)benzoyl)piperidin-2-yl)methyl)acetamide], the IC50 on CDK1 was over 10000 nM; against CDK2, over 10000 nM; at CDK9, 265 nM.

The values above are taken from patent US12729192B2, “CDK9 inhibitor and use thereof” (PHARMABLOCK SCIENCES (NANJING), INC., priority 2020, dated 2026).
